Target: T1, Nav1.7 voltage-gated sodium channel (Homo sapiens, UniProt Q15858)
T1 construct: Gene(s) encoding the full-length protein of the voltage-gated sodium channel of interest are cloned and expressed; expressed in transfected cells
Assay: Whole-cell voltage clamp electrophysiology assay
Type: cell-based
Conditions: cells stably expressing the voltage-gated sodium channel of interest
From the text: Gene(s) encoding the full-length protein of the voltage-gated sodium channel of interest are cloned and expressed under a suitable promoter in a suitable cell line, as well known in the art. […] Suitable screening assays are as follows.
Electrophysiological studies can be performed using automated patch-clamp electrophysiology platforms, like IonWorks HT, IonWorks Quattro, PatchXpress, QPatch or any other suitable platform. […] Suitable extracellular and intracellular buffer for such experiments are applied according to the instructions given by the manufacturer of the automated patch-clamp platforms. Cells that express the voltage-gated sodium channel protein of interest are exposed to drugs through the pipetting system integrated in the platforms. A suitable voltage stimulus protocol is used to activate the voltage-gated sodium channel proteins of interest through depolarisation from a defined holding potential.
Electrophysiological studies can also be performed using the whole cell configuration of the standard patch clamp technique. In this assay, cells that express the voltage-gated sodium channel protein of interest are exposed to the drugs by conventional microperfusion systems and a suitable voltage stimulus protocol is used to activate the voltage-gated sodium channels.

T1 sequence (Q15858 whole entry): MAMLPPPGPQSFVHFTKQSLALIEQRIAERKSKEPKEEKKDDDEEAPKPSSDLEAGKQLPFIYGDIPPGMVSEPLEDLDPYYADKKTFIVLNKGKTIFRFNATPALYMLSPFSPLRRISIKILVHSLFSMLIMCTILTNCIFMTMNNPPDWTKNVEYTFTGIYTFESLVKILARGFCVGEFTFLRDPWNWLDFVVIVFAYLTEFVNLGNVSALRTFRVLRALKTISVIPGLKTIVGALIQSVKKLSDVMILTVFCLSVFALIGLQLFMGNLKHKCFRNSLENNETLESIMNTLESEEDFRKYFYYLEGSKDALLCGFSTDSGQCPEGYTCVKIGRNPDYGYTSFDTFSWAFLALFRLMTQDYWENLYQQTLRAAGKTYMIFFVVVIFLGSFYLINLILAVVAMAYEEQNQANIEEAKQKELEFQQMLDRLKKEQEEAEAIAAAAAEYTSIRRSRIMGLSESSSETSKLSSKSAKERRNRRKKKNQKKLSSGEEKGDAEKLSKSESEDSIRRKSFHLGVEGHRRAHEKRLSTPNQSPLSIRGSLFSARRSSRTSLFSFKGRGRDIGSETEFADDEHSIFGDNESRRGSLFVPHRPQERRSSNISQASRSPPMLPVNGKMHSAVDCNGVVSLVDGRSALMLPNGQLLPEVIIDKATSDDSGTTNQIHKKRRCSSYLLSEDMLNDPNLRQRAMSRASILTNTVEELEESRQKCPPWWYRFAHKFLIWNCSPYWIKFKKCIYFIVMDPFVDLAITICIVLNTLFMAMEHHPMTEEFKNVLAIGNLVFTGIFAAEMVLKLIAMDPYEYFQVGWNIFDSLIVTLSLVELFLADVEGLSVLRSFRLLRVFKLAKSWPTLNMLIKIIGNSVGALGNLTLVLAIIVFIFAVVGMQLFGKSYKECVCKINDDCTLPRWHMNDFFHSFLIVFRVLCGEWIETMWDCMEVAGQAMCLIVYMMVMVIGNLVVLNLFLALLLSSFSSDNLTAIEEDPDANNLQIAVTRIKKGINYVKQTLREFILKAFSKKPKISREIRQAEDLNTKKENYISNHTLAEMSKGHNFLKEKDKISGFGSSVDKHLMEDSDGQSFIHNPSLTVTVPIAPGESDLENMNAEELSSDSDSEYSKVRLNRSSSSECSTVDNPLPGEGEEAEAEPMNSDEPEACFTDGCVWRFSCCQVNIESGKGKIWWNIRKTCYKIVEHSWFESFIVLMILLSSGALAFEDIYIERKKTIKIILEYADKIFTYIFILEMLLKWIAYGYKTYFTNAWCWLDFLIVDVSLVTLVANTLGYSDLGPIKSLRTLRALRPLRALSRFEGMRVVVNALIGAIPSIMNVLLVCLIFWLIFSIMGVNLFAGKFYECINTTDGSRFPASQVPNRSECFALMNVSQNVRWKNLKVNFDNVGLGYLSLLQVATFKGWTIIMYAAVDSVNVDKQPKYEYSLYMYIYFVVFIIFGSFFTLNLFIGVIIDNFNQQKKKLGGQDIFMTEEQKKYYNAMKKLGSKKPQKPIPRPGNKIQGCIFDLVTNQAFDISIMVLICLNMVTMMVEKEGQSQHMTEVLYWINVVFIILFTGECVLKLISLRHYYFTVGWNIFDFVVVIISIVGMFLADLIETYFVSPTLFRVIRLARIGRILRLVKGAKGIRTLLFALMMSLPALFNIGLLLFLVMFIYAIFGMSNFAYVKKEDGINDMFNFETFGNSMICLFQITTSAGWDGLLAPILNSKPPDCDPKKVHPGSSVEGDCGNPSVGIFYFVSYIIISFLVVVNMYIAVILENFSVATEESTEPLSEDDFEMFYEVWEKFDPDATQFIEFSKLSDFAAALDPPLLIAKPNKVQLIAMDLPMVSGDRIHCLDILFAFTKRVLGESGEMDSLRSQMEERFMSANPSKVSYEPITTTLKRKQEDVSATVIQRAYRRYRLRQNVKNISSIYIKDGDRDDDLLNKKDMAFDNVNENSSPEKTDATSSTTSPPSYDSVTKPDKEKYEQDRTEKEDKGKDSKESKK

SMILES | IC50
CC(C)Oc1cnc(C(=O)N[C@@H]2COc3cccc(-c4ccncc4)c3C2)cn1 [Example 38, 5-isopropoxy-N-[(3S)-5-pyridin-4-yl-3,4-dihydro-2H-chromen-3-yl]pyrazine-2-carboxamide] | 631 nM
O=C(N[C@@H]1COc2cccc(-c3ccncc3)c2C1)c1cnc2ccccc2n1 [Example 41, N-[(3S)-5-pyridin-4-yl-3,4-dihydro-2H-chromen-3-yl]quinoxaline-2-carboxamide] | 5010 nM
CC(C)Oc1cnc(C(=O)N[C@@H]2COc3cccc(-c4cccnc4)c3C2)cn1 [Example 42, 5-isopropoxy-N-[(3S)-5-pyridin-3-yl-3,4-dihydro-2H-chromen-3-yl]pyrazine-2-carboxamide] | 1000 nM
O=C(N[C@@H]1COc2cccc(-c3cccnc3)c2C1)c1cnc(OCCC(F)(F)F)cn1 [Example 43, N-[(3S)-5-pyridin-3-yl-3,4-dihydro-2H-chromen-3-yl]-5-(3,3,3-trifluoropropoxy)pyrazine-2-carboxamide] | 501 nM
COc1cnc(C(=O)N[C@@H]2COc3cccc(-c4cccnc4)c3C2)cn1 [Example 44, 5-methoxy-N-[(3S)-5-pyridin-3-yl-3,4-dihydro-2H-chromen-3-yl]pyrazine-2-carboxamide] | 631 nM
O=C(N[C@@H]1COc2cccc(-c3cccnc3)c2C1)c1ccc2cccnc2n1 [Example 45, N-[(3S)-5-pyridin-3-yl-3,4-dihydro-2H-chromen-3-yl]-1,8-naphthyridine-2-carboxamide] | 1260 nM
O=C(N[C@@H]1COc2cccc(-c3cccnc3)c2C1)c1ccc2ncccc2n1 [Example 46, N-[(3S)-5-pyridin-3-yl-3,4-dihydro-2H-chromen-3-yl]-1,5-naphthyridine-2-carboxamide] | 3160 nM
COc1ccc(-c2cccc3c2C[C@H](NC(=O)c2cnc(OCCC(F)(F)F)cn2)CO3)cn1 [Example 48, N-[(3S)-5-(6-methoxypyridin-3-yl)-3,4-dihydro-2H-chromen-3-yl]-5-(3,3,3-trifluoropropoxy)pyrazine-2-carboxamide] | 631 nM
COc1ccc(-c2cccc3c2C[C@H](NC(=O)c2cnc(OC)cn2)CO3)cn1 [Example 49, 5-methoxy-N-[(3S)-5-(6-methoxypyridin-3-yl)-3,4-dihydro-2H-chromen-3-yl]pyrazine-2-carboxamide] | 1260 nM
O=C(N[C@@H]1COc2cccc(-c3cccnc3)c2C1)c1ccc(OCCC(F)(F)F)nc1 [Example 51, N-[(3S)-5-pyridin-3-yl-3,4-dihydro-2H-chromen-3-yl]-6-(3,3,3-trifluoropropoxy)nicotinamide] | 39.8 nM
Cc1nn(CC(C)C)nc1C(=O)N[C@@H]1COc2cccc(-c3cccnc3)c2C1 [Example 52, 2-isobutyl-5-methyl-N-[(3S)-5-pyridin-3-yl-3,4-dihydro-2H-chromen-3-yl]-2H-1,2,3-triazole-4-carboxamide] | 3980 nM
CC(C)Oc1ccc(C(=O)N[C@@H]2COc3cccc(-c4cncnc4)c3C2)cn1 [Example 53, 6-isopropoxy-N-[(3S)-5-pyrimidin-5-yl-3,4-dihydro-2H-chromen-3-yl]nicotinamide] | 251 nM
O=C(N[C@@H]1COc2cccc(-c3cncnc3)c2C1)c1ccc(OCCC(F)(F)F)nc1 [Example 54, N-[(3S)-5-pyrimidin-5-yl-3,4-dihydro-2H-chromen-3-yl]-6-(3,3,3-trifluoropropoxy)nicotinamide] | 63.1 nM
COc1ncc(-c2cccc3c2C[C@H](NC(=O)c2ccc(OC(C)C)nc2)CO3)cn1 [Example 55, 6-isopropoxy-N-[(3S)-5-(2-methoxypyrimidin-5-yl)-3,4-dihydro-2H-chromen-3-yl]nicotinamide] | 316 nM
COc1cc(-c2cccc3c2C[C@H](NC(=O)c2ccc(OCCC(F)(F)F)nc2)CO3)ccn1 [Example 59, N-[(3S)-5-(2-methoxypyridin-4-yl)-3,4-dihydro-2H-chromen-3-yl]-6-(3,3,3-trifluoropropoxy)nicotinamide] | 126 nM
Cc1ncc(-c2cccc3c2C[C@H](NC(=O)c2ccc(OCCC(F)(F)F)nc2)CO3)cn1 [Example 61, N-[(3S)-5-(2-methylpyrimidin-5-yl)-3,4-dihydro-2H-chromen-3-yl]-6-(3,3,3-trifluoropropoxy)nicotinamide] | 50.1 nM
O=C(N[C@@H]1COc2cccc(-c3ccnc(F)c3)c2C1)c1ccc(OCCC(F)(F)F)nc1 [Example 63, N-[(3S)-5-(2-fluoropyridin-4-yl)-3,4-dihydro-2H-chromen-3-yl]-6-(3,3,3-trifluoropropoxy)nicotinamide] | 79.4 nM
O=C(N[C@@H]1COc2cccc(-c3cccnc3)c2C1)c1ccc2ccccc2n1 [Example 65, N-[(3S)-5-pyridin-3-yl-3,4-dihydro-2H-chromen-3-yl]quinoline-2-carboxamide] | 5010 nM
Cc1cnccc1-c1cccc2c1C[C@H](NC(=O)c1ccc(OCCC(F)(F)F)nc1)CO2 [Example 68, N-[(3S)-5-(3-methylpyridin-4-yl)-3,4-dihydro-2H-chromen-3-yl]-6-(3,3,3-trifluoropropoxy)nicotinamide] | 100 nM
O=C(N[C@@H]1COc2cccc(-c3ccc(F)nc3)c2C1)c1ccc(OCCC(F)(F)F)nc1 [Example 69, N-[(3S)-5-(6-fluoropyridin-3-yl)-3,4-dihydro-2H-chromen-3-yl]-6-(3,3,3-trifluoropropoxy)nicotinamide] | 79.4 nM
COc1ccc(-c2ccc(C(=O)N[C@@H]3COc4cccc(-c5ccncc5)c4C3)cn2)c(OC)c1 [Example 70, 6-(2,4-dimethoxyphenyl)-N-[(3S)-5-pyridin-4-yl-3,4-dihydro-2H-chromen-3-yl]nicotinamide] | 1000 nM
COc1ncccc1-c1cccc2c1C[C@H](NC(=O)c1ccc(OCCC(F)(F)F)nc1)CO2 [Example 72, N-[(3S)-5-(2-methoxypyridin-3-yl)-3,4-dihydro-2H-chromen-3-yl]-6-(3,3,3-trifluoropropoxy)nicotinamide] | 501 nM

Other lines, results leading:

IC50 | SMILES
126 nM | CC(C)Oc1ccc(C(=O)N[C@@H]2CCc3cccc(-c4ccncc4F)c3C2)cn1 [Example 39, N-[(2R)-8-(3-fluoropyridin-4-yl)-1,2,3,4-tetrahydronaphthalen-2-yl]-6-isopropoxynicotinamide]
50.1 nM | O=C(N[C@@H]1CCc2cccc(-c3ccncc3F)c2C1)c1ccc(OCC(F)(F)F)nc1 [Example 40, N-[(2R)-8-(3-fluoropyridin-4-yl)-1,2,3,4-tetrahydronaphthalen-2-yl]-6-(2,2,2-trifluoroethoxy)nicotinamide]
63.1 nM | CC(C)Oc1ccc(C(=O)N[C@@H]2COc3cccc(-c4cccnc4)c3C2)cn1 [Example 50, 6-isopropoxy-N-[(3S)-5-pyridin-3-yl-3,4-dihydro-2H-chromen-3-yl]nicotinamide]
398 nM | COc1cc(-c2cccc3c2C[C@H](NC(=O)c2ccc(OC(C)C)nc2)CO3)ccn1 [Example 58, 6-isopropoxy-N-[(3S)-5-(2-methoxypyridin-4-yl)-3,4-dihydro-2H-chromen-3-yl]nicotinamide]
158 nM | Cc1ncc(-c2cccc3c2C[C@H](NC(=O)c2ccc(OC(C)C)nc2)CO3)cn1 [Example 60, 6-isopropoxy-N-[(3S)-5-(2-methylpyrimidin-5-yl)-3,4-dihydro-2H-chromen-3-yl]nicotinamide]
251 nM | CC(C)Oc1ccc(C(=O)N[C@@H]2COc3cccc(-c4ccnc(F)c4)c3C2)cn1 [Example 62, N-[(3S)-5-(2-fluoropyridin-4-yl)-3,4-dihydro-2H-chromen-3-yl]-6-isopropoxynicotinamide]
158 nM | Cc1cnccc1-c1cccc2c1C[C@H](NC(=O)c1ccc(OC(C)C)nc1)CO2 [Example 66, 6-isopropoxy-N-[(3S)-5-(3-methylpyridin-4-yl)-3,4-dihydro-2H-chromen-3-yl]nicotinamide]
501 nM | CC(C)Oc1ccc(C(=O)N[C@@H]2COc3cccc(-c4ccc(F)nc4)c3C2)cn1 [Example 67, N-[(3S)-5-(6-fluoropyridin-3-yl)-3,4-dihydro-2H-chromen-3-yl]-6-isopropoxynicotinamide]
2000 nM | COc1ncccc1-c1cccc2c1C[C@H](NC(=O)c1ccc(OC(C)C)nc1)CO2 [Example 71, 6-isopropoxy-N-[(3S)-5-(2-methoxypyridin-3-yl)-3,4-dihydro-2H-chromen-3-yl]nicotinamide]
3980 nM | COc1ncc(-c2cccc3c2C[C@@H](NC(=O)c2ccc(OC(C)C)nc2)CC3)cn1 [Example 73, 6-isopropoxy-N-[(2S)-8-(2-methoxypyrimidin-5-yl)-1,2,3,4-tetrahydronaphthalen-2-yl]nicotinamide]
251 nM | CC(C)Oc1ccc(C(=O)N[C@@H]2CCc3cccc(-c4cccnc4F)c3C2)cn1 [Example 74, N-[(2R)-8-(2-fluoropyridin-3-yl)-1,2,3,4-tetrahydronaphthalen-2-yl]-6-isopropoxynicotinamide]
631 nM | O=C(N[C@@H]1CCc2cccc(-c3ccnnc3)c2C1)c1ccc(OCCC(F)(F)F)nc1 [Example 75, N-[(2R)-8-pyridazin-4-yl-1,2,3,4-tetrahydronaphthalen-2-yl]-6-(3,3,3-trifluoropropoxy)nicotinamide]
398 nM | COc1ccc(-c2cccc3c2C[C@H](NC(=O)c2ccc(OC(C)C)nc2)CO3)cn1 [Example 76, 6-isopropoxy-N-[(3S)-5-(6-methoxypyridin-3-yl)-3,4-dihydro-2H-chromen-3-yl]nicotinamide]
